{"source": "paper PMC9423655", "about": "“Huntington’s disease phenotypes are improved via mTORC1 modulation by small molecule therapy” (PLoS ONE, 2022)", "key": {"[1]": {"experiment": "Pharmacokinetic analysis of NV-5297 in mice (i.v. and oral, LC-MS/MS)", "type": "in vivo", "conditions": "C57BL/6 mice", "protocol": "[…] Mice were given free access to food and water for both i.v. and orally dosed groups. After dosing, tail-vein blood was collected at the indicated time points into K2EDTA tubes and centrifuged at 2,000g for 5 minutes to collect serum. Levels of NV-5297 were quantified via LC-MS/MS. WinNonlin V 6.2 statistics software (Pharsight Corporation, California, USA) was used to generate pharmacokinetics parameters using non-compartmental model.\nPK parameters of NV-5297 after an IV dose at 1 mg/kg\nPK parameters Unit Estimate\nPK parameters of NV-5297 after an OD dose at 5 mg/kg"}, "mTORC1": {"test_system": "mTORC1", "experiment": "mTORC1 activation (pS6K1 immunoblot) in leucine-starved HEK293T cells", "type": "cell-based", "conditions": "HEK293T cells starved of leucine 50 minutes, treatment 10 minutes", "protocol": "All cell lines were cultured in DMEM (Corning, #MT10013CV) supplemented with 10% heat-inactivated FBS (Gibco, #16140–071). All cell lines were maintained at 37°C and 5% CO2. For amino acid starvation, cells were rinsed once with and incubated Amino acid-free RPMI (US Biologicals, #R8999-04A) supplemented with 10% dialyzed FBS (Gibco, #26400044) for 50 min followed by treatment with NV-5297, leucine, or vehicle for 10 minutes. For leucine starvation, cells were rinsed once with and incubated in leucine-free DMEM (AthenaES, #0420) supplemented with 10% dialyzed FBS (Gibco, #26400044) for 50 minuted followed by treatment with NV-5297, leucine, or vehicle for 10 minutes.\n(A) Activation of the mTORC1 pathway by NV-5297. […] (B) NV-5297 disrupts Sestrin2/GATOR2 in the in vitro Sesn2/WDR24 protein-protein interaction assay in a dose-dependent manner. […] Representative immunoblots of ^T389pS6K1 and quantification of the normalized level of ^T389pS6K1 from 8 independent experiments (F) show TORC1 activity in unedited HEK-293T cells, HEK-293T cells deficient for Sestrin 1 (Sesn1), 2 (Sesn2) and 3 (Sesn3) (D) or HEK-293T cells deficient for the GATOR1 component Nprl3 (E) after 50 minutes leucine starvation followed by the addition of vehicle, NV-5297 or leucine for 10 minutes. […]"}, "[2]": {"conditions": "male, mouse, serum, IV dose at 1 mg/kg"}, "[3]": {"conditions": "male, mouse, serum, OD (oral) dose at 5 mg/kg"}}, "note": "Like-named read-outs stand apart in the source and are kept apart here.", "data": [{"compound": "CC(C)(C[C@H](N)C(=O)O)C(F)(F)F", "note": "[NV-5297, (S)-2-amino-5,5,5-trifluoro-4,4-dimethylpentanoic acid]", "values": [{"measurement": "Cmax", "setting": "[1]; OD (oral) dose at 5 mg/kg", "value": 2893, "unit": "ng/mL"}, {"measurement": "bioavailability", "setting": "[1]; male, mouse, serum, po, 160 mg/kg, refers to S1 Table, read-out: oral bioavailability", "value": 100, "unit": "%"}, {"measurement": "half-life", "setting": "[1]; male, mouse, serum, oral, 160 mg/kg, refers to S1 Table, read-out: half-life (converted)", "value": "~3", "unit": "h"}, {"measurement": "Tmax", "setting": "[1]; male, mouse, serum, oral, 160 mg/kg, refers to S1 Table, read-out: time to maximal concentration (tmax) (converted)", "value": 0.5, "unit": "h"}, {"measurement": "AUC(0-inf)", "setting": "[1]; [2]", "value": 1240, "unit": "ng·h/mL"}, {"measurement": "AUC(0-t)", "setting": "[1]; [2]", "value": 1220, "unit": "ng·h/mL"}, {"measurement": "MRT inf", "setting": "[1]; [2]", "value": 1.56, "unit": "h"}, {"measurement": "clearance", "setting": "[1]; [2]", "value": 13.3, "unit": "mL/min/kg"}, {"measurement": "half-life", "setting": "[1]; male, mouse, serum, IV dose at 1 mg/kg, read-out: Terminal T1/2 (converted)", "value": 1.45, "unit": "h"}, {"measurement": "Vd", "setting": "[1]; male, mouse, serum, IV dose at 1 mg/kg, read-out: Vss", "value": 1.26, "unit": "L/kg"}, {"measurement": "bioavailability", "setting": "[1]; male, mouse, serum, OD (oral) dose at 5 mg/kg vs IV 1 mg/kg, read-out: F (bioavailability)", "value": 104, "unit": "%"}, {"measurement": "AUC(0-inf)", "setting": "[1]; [3]", "value": 6470, "unit": "ng·h/mL"}, {"measurement": "AUC(0-t)", "setting": "[1]; [3]", "value": 6460, "unit": "ng·h/mL"}, {"measurement": "half-life", "setting": "[1]; male, mouse, serum, OD (oral) dose at 5 mg/kg, read-out: Terminal T1/2 (converted)", "value": 2.86, "unit": "h"}, {"measurement": "Tmax", "setting": "[1]; male, mouse, serum, OD (oral) dose at 5 mg/kg, read-out: Tmax", "value": 0.5, "unit": "h"}, {"measurement": "mTORC1 activation measured by phosphorylated S6K1 (pS6K1 / p70S6K1)", "setting": "mTORC1", "value": "activates mTORC1 in leucine-starved HEK293T cells in a dose-dependent manner"}]}]}
